Columns and labels:
[1] = molecular target: T1, S3.36 A variant of the 5HT2 A receptor (Homo sapiens, UniProt P28223, S159A); experiment: Ca2+i mobilization response (Indo-1, flow cytometry) of cells expressing variant serotonin receptor; format: cell-based
T1 construct: expressed in transfected cells
Excerpt: Step 1: To observe GOF behavior it is necessary to understand the range of compound concentration that activates the wild type receptor (WT). GOF variants will respond to concentrations of the test compound at least 5 fold lower than the minimal concentration that activates the WT. An illustration is shown in FIG. 18 where a dose-response curve for one null function mutant receptor (NF), the serotonin 2 A receptor (5 HT2 A) mutant 5.46, and the WT are shown in the lower graph. The two curves are virtually identical. […] At very low concentrations, only the GOF 3.36 mutant bearing cells are isolated, and the WT and NF 5.46 mutant are only selected as the compound concentration is raised to relatively high concentrations. It will also be necessary to understand the time kinetics of the WT response so that an appropriate time window (TW) region of the response can be selected for the analysis and sort.
FIG. 18 illustrates the results obtained during steps of GOF sorting of variant Human Serotonin Receptor Type 2A populations. Three populations of cells containing one of three versions of the human serotonin receptor type 2A were stained three distinct “colors” recognizable by the FACS. The populations were combined in equal proportions into one population. One mutant is the S3.36 A, the other mutant is the S5.46 A mutant and the third group is the wild type receptor (WT). The cells were also loaded with the Ca^2+i indicator dye, indol, so that receptor-mediated signaling events could be monitored through the Ca^2+i mobilization response. The combined population was stimulated with increasing concentrations of the test compound, naphthyl piperazine, and the percentage of cells within each colored subpopulation showing a threshold Ca^2+i response was quantified. […] The sorted cells were then re-analyzed to evaluate the subpopulation from which they were derived, based on the distinct “color” used to stain each subpopulation. The identity of the sorted populations that were taken from sorting at several different compound concentrations is shown in the bottom half of the figure. […] At the high and low ends of the concentration range there was no selective responsiveness by the S3.36 A variant cells, and the FACS selected each of the populations equally.
GOF sorting enhances drug discovery by providing the ability to identify in a few months the Gain of Function (GOF) receptor variants that normally took years to identify. It was hypothesized that GOF variants could be isolated efficiently from a pool of cells, each expressing a single variant, by sorting responding cells at low concentrations of agonist, using Fluorescence Activated Cell Sorting (FACS). […]

[2] = system: 5 HT2 A receptor cell lines; experiment: FACS sorting of responding cells from a mixture of three color-coded 5 HT2 A receptor cell lines (WT, S3.36 A, S5.46 A); format: cell-based, human
Excerpt: FIG. 18 illustrates the results obtained during steps of GOF sorting of variant Human Serotonin Receptor Type 2A populations. Three populations of cells containing one of three versions of the human serotonin receptor type 2A were stained three distinct “colors” recognizable by the FACS. The populations were combined in equal proportions into one population. One mutant is the S3.36 A, the other mutant is the S5.46 A mutant and the third group is the wild type receptor (WT). The cells were also loaded with the Ca^2+i indicator dye, indol, so that receptor-mediated signaling events could be monitored through the Ca^2+i mobilization response. The combined population was stimulated with increasing concentrations of the test compound, naphthyl piperazine, and the percentage of cells within each colored subpopulation showing a threshold Ca^2+i response was quantified. […] The sorted cells were then re-analyzed to evaluate the subpopulation from which they were derived, based on the distinct “color” used to stain each subpopulation. The identity of the sorted populations that were taken from sorting at several different compound concentrations is shown in the bottom half of the figure. […] At the high and low ends of the concentration range there was no selective responsiveness by the S3.36 A variant cells, and the FACS selected each of the populations equally. […]

T1 sequence (P28223 whole entry S159A): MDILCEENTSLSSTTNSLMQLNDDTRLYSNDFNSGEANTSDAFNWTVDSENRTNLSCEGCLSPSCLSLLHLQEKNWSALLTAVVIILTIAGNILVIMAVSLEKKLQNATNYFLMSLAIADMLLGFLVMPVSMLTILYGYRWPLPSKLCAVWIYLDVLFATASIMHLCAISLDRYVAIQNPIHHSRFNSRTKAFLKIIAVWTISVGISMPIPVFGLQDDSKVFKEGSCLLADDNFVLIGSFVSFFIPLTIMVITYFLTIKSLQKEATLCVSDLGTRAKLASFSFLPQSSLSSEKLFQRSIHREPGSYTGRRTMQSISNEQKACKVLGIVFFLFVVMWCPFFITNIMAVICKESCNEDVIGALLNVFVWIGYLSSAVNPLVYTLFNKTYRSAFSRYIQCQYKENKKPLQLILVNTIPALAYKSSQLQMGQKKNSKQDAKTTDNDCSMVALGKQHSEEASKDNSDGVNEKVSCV

`c1ccc2c(N3CCNCC3)cccc2c1` [Naphthyl Piperazine] was tested. Which “agonist concentration at which cells expressing the S3.36 A variant were becoming activated” value ([1]; WT and S5.46 A variant not activated at this concentration) did it give?
Its value is 3 nM.

What about the “fold lower EC50 of S3.36 A variant than the wild type or the S5.46 A variant” value ([1]; agonist dose-response, S3.36 A vs wild type or S5.46 A 5HT2 A receptor) of the same compound?
Its value is 1,000 fold.

What about the “minimum concentration that activates the 3.36 mutant cells, fold lower than that required to activate the WT” value ([1]; mutant 3.36 vs WT, dose-response curve FIG. 18) of the same compound?
Its value is “more than 100 fold”.

What about the “affinity of S3.36 A variant for the compound compared with S5.46 A and WT” value ([1]; percentage of cells showing a threshold Ca2+i response, increasing concentrations) of the same compound?
The value was “greater affinity”.

And the “share of GOF S3.36 A variant in the sorted population” value ([2]; 50-100 nM agonist concentration range)?
Its value is 90%.

And the “agonist concentration range of selective sorting of GOF variant S3.36 A from wild type and S5.46 A” value ([2]; FACS sort of responding cells, mixed pool of 3 cell lines)?
Its value is 10 to 300 nM.

From patent publication US20050021241A1, “Gain of function sorting for drug discovery and development” (priority 2003, published 2005)
